Test results reported in ChEMBL document CHEMBL5233266, “β-Carboline as a Privileged Scaffold for Multitarget Strategies in Alzheimer's Disease Therapy” (J Med Chem, 2021).
pIC50, pKi: −log10 of the molar value. Several values for one entry are separate records, joined by “and”; a condition that tells them apart may be missing. Equal entries are not always repeated. Values belong to the molecule of their own block, whether it stands above or below them.

What was measured:
[1] = molecular target: cGMP-specific 3',5'-cyclic phosphodiesterase (Homo sapiens, UniProt O76074); test: Inhibition of PDE5 (unknown origin)
Histone deacetylase = test: Inhibition of HDAC (unknown origin); format: protein assay, Homo sapiens
Acetylcholinesterase = Acetylcholinesterase (Homo sapiens, UniProt P22303); test: Inhibition of AChE (unknown origin)
Sequence of Acetylcholinesterase (P22303 whole entry): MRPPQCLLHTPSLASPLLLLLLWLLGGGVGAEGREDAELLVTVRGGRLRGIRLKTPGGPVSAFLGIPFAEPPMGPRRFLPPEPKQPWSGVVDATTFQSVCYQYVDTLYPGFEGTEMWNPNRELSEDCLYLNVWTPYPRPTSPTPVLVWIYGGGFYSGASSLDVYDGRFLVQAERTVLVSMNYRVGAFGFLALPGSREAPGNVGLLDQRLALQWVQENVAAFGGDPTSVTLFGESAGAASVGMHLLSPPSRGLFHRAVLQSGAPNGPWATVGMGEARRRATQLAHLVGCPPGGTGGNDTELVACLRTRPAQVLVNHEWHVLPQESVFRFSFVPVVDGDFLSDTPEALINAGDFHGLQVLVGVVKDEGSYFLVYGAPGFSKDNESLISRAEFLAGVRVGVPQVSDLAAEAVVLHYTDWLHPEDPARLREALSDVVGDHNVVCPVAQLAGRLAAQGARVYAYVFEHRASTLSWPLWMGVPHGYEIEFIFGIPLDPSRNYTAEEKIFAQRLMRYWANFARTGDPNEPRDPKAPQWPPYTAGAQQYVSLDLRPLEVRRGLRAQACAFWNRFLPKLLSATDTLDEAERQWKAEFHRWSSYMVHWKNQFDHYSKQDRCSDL

Cholinesterase = Cholinesterase (Homo sapiens, UniProt P06276); test: Inhibition of BuChE (unknown origin)
Sequence of Cholinesterase (P06276 whole entry): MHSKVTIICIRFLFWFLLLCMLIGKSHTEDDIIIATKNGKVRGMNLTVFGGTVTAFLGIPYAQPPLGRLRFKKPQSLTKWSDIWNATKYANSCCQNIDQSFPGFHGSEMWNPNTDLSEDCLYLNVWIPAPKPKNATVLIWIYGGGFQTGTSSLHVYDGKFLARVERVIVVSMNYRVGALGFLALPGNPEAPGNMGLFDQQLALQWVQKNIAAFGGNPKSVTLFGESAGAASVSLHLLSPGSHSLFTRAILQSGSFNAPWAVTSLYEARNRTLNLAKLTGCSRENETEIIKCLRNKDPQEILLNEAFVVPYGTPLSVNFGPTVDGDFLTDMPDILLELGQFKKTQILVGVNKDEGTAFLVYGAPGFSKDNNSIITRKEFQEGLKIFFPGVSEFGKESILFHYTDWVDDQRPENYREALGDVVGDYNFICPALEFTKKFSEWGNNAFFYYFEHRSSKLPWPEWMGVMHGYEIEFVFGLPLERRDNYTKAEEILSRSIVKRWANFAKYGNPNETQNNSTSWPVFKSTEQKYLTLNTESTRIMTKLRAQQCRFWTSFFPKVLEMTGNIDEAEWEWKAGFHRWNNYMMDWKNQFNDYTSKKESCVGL

[2] = Inhibition of NMDA receptor (unknown origin); design: species or system Homo sapiens
[3] = molecular target: 5-hydroxytryptamine receptor 2A (Homo sapiens, UniProt P28223); test: Displacement of [3H]-LSD from human 5-HT2A expressed in human HEK cells assessed as inhibition constant by FLIPR assay; format: cell-based
Sequence of 5-hydroxytryptamine receptor 2A (P28223 whole entry): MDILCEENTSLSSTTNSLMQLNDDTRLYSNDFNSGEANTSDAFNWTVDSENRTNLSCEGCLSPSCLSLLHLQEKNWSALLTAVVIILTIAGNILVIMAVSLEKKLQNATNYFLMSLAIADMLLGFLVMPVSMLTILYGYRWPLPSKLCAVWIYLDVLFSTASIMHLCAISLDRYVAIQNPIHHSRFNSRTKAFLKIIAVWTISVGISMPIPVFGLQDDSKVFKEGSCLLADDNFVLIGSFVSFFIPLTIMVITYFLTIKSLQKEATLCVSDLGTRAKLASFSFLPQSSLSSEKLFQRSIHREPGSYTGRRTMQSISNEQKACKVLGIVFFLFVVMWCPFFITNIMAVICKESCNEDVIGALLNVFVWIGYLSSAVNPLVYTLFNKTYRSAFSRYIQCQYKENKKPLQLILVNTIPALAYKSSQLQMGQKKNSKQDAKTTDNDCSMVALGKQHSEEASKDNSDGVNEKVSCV

[4] = molecular target: T1, 5-hydroxytryptamine receptor 3A (Homo sapiens, UniProt P46098); test: Binding affinity to 5-HT3R (unknown origin) assessed as inhibition constant
T1 sequence (P46098 whole entry): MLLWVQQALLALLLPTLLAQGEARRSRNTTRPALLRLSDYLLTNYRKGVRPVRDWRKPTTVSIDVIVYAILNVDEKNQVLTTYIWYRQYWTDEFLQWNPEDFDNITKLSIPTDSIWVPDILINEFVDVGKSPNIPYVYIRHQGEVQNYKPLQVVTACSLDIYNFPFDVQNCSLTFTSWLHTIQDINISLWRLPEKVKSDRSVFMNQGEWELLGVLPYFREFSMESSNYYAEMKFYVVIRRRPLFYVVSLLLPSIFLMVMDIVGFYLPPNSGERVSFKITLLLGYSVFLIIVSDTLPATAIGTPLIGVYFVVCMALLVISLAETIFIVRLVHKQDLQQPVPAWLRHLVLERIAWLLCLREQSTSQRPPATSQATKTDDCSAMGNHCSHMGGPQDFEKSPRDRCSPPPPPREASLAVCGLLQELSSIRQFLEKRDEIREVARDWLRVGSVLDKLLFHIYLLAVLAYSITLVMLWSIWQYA

[5] = molecular target: 5-hydroxytryptamine receptor 5A (Homo sapiens, UniProt P47898); test: Binding affinity to 5-HT5AR (unknown origin) assessed as inhibition constant
Sequence of 5-hydroxytryptamine receptor 5A (P47898 whole entry): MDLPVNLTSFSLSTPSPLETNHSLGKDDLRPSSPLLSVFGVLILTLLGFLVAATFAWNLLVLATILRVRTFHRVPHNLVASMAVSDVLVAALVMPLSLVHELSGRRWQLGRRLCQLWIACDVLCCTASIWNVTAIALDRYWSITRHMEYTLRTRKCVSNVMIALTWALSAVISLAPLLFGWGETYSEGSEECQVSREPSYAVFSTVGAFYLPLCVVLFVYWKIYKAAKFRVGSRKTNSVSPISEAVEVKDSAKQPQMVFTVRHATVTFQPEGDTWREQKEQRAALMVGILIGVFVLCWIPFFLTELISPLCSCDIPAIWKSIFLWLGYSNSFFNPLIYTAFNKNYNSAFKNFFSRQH

[6] = molecular target: T2, Amine oxidase [flavin-containing] A (Homo sapiens, UniProt P21397); test: Binding affinity to MAO-A (unknown origin) assessed as inhibition constant
T2 sequence (P21397 whole entry): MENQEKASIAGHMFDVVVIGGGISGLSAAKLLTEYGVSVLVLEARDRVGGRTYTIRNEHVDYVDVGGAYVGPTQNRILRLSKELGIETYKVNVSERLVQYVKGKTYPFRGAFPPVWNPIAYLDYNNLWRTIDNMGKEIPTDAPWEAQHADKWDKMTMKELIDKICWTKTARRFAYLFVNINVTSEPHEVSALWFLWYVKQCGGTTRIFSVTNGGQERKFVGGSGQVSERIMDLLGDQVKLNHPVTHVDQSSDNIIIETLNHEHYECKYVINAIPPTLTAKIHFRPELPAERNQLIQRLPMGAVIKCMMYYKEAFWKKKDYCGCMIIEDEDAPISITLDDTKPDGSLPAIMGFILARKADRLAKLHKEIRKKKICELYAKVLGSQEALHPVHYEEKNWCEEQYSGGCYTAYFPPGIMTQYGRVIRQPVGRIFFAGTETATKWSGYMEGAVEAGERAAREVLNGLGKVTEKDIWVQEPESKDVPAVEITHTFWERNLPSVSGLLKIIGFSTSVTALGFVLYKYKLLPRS

[7] = molecular target: T2, Amine oxidase [flavin-containing] A; test: Inhibition of MAO-A (unknown origin)
[8] = molecular target: T3, Amine oxidase [flavin-containing] B (Homo sapiens, UniProt P27338); test: Inhibition of MAO-B (unknown origin)
T3 sequence (P27338 whole entry): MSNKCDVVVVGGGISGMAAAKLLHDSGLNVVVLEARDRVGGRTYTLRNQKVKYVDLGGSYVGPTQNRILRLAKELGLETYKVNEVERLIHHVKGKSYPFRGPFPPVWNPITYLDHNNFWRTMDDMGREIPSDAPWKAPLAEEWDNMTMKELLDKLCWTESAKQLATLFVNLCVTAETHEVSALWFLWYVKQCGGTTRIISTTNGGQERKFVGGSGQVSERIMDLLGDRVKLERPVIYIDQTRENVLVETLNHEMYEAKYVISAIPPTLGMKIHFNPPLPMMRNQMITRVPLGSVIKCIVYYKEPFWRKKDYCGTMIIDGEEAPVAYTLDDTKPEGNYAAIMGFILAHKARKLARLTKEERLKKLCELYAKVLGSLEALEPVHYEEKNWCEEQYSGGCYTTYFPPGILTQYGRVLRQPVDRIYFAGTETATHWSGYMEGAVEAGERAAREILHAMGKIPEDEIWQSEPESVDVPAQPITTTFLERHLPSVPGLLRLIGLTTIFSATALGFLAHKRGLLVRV

Histone deacetylase 1 = Histone deacetylase 1 (Homo sapiens, UniProt Q13547); test: Inhibition of HDAC1 (unknown origin)
Sequence of Histone deacetylase 1 (Q13547 whole entry): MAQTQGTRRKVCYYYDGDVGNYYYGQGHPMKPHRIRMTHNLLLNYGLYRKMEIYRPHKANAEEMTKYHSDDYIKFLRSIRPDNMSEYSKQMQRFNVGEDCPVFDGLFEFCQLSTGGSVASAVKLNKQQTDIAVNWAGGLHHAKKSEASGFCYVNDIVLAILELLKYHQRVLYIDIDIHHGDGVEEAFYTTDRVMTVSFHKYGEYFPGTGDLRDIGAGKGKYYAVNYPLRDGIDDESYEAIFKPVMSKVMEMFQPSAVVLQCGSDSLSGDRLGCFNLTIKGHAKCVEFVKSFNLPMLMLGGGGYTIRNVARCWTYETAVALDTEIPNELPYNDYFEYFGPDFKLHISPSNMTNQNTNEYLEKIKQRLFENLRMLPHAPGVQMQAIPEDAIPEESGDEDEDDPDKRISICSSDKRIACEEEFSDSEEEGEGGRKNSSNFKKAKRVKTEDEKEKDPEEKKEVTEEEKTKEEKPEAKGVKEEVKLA

[9] = molecular target: T4, Protein deacetylase HDAC6 (Homo sapiens, UniProt Q9UBN7); test: Inhibition of HDAC6 (unknown origin)
T4 sequence (Q9UBN7 whole entry): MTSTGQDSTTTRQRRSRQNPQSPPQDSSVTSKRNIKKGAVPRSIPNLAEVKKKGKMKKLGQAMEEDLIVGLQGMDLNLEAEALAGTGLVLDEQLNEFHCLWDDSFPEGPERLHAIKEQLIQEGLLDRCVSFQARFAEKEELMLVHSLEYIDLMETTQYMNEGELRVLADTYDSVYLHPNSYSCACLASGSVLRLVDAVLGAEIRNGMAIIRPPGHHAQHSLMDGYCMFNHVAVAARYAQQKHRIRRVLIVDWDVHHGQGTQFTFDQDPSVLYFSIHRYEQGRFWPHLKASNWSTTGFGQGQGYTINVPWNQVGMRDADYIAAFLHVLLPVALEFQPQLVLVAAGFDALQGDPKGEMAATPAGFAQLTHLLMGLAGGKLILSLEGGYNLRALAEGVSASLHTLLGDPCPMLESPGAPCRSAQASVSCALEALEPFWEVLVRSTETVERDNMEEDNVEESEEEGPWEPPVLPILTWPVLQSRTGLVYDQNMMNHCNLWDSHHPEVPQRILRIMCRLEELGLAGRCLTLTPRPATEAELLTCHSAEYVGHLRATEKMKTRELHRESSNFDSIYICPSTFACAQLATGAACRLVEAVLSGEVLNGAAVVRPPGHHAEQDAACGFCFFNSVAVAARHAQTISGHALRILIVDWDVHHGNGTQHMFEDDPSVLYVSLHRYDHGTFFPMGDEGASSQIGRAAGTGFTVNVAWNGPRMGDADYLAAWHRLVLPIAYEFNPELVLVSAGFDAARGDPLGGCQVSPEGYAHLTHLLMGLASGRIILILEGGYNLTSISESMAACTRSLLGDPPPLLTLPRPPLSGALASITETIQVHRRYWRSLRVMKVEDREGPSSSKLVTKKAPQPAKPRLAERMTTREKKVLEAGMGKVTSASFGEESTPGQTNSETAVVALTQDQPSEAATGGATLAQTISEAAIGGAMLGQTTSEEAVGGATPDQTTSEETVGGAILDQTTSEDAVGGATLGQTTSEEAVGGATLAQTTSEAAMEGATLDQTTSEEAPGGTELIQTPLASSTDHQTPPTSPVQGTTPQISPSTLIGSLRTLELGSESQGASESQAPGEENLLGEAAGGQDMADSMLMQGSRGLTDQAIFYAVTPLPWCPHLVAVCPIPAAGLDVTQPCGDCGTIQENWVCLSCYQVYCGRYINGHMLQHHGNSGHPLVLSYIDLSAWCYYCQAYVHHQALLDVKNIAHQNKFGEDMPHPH

[10] = molecular target: Glycogen synthase kinase-3 beta (Homo sapiens, UniProt P49841); test: Inhibition of GSK-3beta (unknown origin)
Sequence of Glycogen synthase kinase-3 beta (P49841 whole entry): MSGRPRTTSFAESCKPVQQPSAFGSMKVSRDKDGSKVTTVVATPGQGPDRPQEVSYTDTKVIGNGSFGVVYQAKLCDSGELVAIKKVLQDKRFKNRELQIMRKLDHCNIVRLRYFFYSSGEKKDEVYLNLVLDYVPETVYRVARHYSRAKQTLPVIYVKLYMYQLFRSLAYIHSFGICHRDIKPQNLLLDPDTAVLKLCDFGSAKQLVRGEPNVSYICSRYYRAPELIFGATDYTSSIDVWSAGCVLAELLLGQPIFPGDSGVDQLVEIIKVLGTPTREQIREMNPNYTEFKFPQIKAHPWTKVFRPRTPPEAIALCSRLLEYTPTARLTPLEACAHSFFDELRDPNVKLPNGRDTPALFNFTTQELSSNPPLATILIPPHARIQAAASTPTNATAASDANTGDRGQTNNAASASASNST

[11] = molecular target: Amyloid-beta precursor protein (Homo sapiens) (UniProt P05067); test: Inhibition of amyloid beta (unknown origin) aggregation at 25 uM relative to control
Sequence of Amyloid-beta precursor protein (Homo sapiens) (P05067 whole entry): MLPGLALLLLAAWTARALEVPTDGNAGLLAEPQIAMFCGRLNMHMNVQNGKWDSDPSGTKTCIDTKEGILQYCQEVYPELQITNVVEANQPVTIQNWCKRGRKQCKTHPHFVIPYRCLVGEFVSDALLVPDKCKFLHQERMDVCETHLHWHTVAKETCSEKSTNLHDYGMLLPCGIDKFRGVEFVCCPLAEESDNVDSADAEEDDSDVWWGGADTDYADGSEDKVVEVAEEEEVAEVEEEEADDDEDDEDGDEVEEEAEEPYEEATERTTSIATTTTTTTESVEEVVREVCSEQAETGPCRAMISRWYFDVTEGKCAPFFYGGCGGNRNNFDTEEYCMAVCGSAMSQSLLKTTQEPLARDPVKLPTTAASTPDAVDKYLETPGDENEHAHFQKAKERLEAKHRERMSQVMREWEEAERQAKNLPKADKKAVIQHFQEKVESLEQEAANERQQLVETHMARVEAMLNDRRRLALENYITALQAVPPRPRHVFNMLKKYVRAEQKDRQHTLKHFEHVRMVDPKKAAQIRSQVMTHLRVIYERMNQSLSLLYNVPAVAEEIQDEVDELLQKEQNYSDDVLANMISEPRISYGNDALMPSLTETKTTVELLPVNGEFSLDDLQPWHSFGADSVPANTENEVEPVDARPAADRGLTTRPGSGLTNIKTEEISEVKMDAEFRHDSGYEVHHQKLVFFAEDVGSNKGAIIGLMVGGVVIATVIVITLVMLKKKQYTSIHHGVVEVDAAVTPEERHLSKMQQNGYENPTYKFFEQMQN

pIC50 [1]: 8.15
IC50 (Histone deacetylase): 0.061 µM
SMILES: O=C(CCCCCN1CC(=O)N2[C@H](c3ccc(Br)cc3)c3[nH]c4ccccc4c3C[C@@H]2C1=O)NO

pIC50 [1]: 8.15
IC50 (Histone deacetylase): 0.061 µM
SMILES: O=C(CCCCN1CC(=O)N2[C@H](c3ccc(Br)cc3)c3[nH]c4ccccc4c3C[C@@H]2C1=O)NO

pIC50 [7]: 6.06
pIC50 [8]: 3.89
SMILES: C/C=C(\C=O)[C@@H]1C[C@H]2c3[nH]c4ccccc4c3CCN2C=C1C(=O)OC [ISOVALLESIACHOTAMINE]

pIC50 [1]: 6.90
IC50 (Histone deacetylase): 0.0091 µM
SMILES: O=C(CCCCCCN1CC(=O)N2[C@H](c3ccc(Cl)cc3)c3[nH]c4ccccc4c3C[C@@H]2C1=O)NO

pIC50 [8]: 4.47
SMILES: COC(=O)C1=CN2CCc3c([nH]c4ccccc34)[C@@H]2C[C@H]1C1=CCOC1=O

The remaining lines, values behind:

SMILES: C[n+]1ccc2c3ccccc3n(CCc3ccccc3)c2c1
pIC50 (Acetylcholinesterase): 9.30
pIC50 (Cholinesterase): 5.30
pIC50 [2]: 5.30

SMILES: COc1ccc2[nH]c3c(c2c1)CCN=C3C
pKi [3]: 5.38
pKi [4]: < 5.00
pKi [5]: < 5.00

SMILES: COc1ccc2c3c(n(C)c2c1)C(C)=[N+](C)CC3
pKi [6]: 6.85

SMILES: c1ccc2c(c1)[nH]c1c[n+](CCCCCCCCCCCC[n+]3ccc4c(c3)[nH]c3ccccc34)ccc12
pIC50 (Acetylcholinesterase): 4.07
pIC50 (Cholinesterase): 5.74
pIC50 [2]: 5.74

SMILES: O=C(NO)c1cnc(N2CCC(CN3CC(=O)N4C(Cc5c([nH]c6ccccc56)C4c4ccc5c(c4)OCO5)C3=O)CC2)nc1 (stereo not drawn)
pIC50 [1]: 6.51
pIC50 (Histone deacetylase 1): 7.10
pIC50 [9]: 7.10

SMILES: Oc1cccc2c1[nH]c1c(C3=C[C@@]4(O)CC/C=C\CCCCN5CCC3[C@]3(C[C@@H]6/C=C\CCCCN6[C@H]34)C5)nccc12 (stereo partly drawn)
pIC50 [10]: 5.32

SMILES: CCCc1ccc[n+](CC(=O)Nc2ccc3cc4c5[nH]c6ccccc6c5ccn4c(=O)c3c2)c1
inhibition [11]: 93%

SMILES: COc1ccc2c3cc[n+](C)c(C)c3n(C)c2c1
pKi [6]: 7.16 and 7.82

SMILES: CCCCn1c2cc(OCc3cn(Cc4ccccc4Cl)nn3)ccc2c2ccnc(C)c21
pIC50 [7]: 6.37
pIC50 [8]: 6.44

SMILES: CCCCc1ccc[n+](CC(=O)Nc2ccc3cc4c5[nH]c6ccccc6c5ccn4c(=O)c3c2)c1
inhibition [11]: 93%
